Assay results from patent publication US20220323379A1, “P62 LIGAND COMPOUND AND ER-PHAGY-PROMOTING USE THEREOF” (PROTECH, INC., priority 2019, published 2022).
Entries after “also recorded” stand apart in the source; their conditions may differ.

What was measured:
HEK293T cells = experiment: Transmission electron microscopy of treated cells; assay type: cell-based, human; details: 2.5 μM, 6 h vs DMSO, FIG. 5E
Experimental: FIG. 5E is a transmission electron microscopy image of HEK293T cells treated with YOK1104 (2.5 μM, 6 h) or DMSO (control), where arrows indicate autolysosomes and asterisks indicate ER fragments inside autolysosomes (scale bars, 500 nm (1st & 2nd column), 200 nm (3rd column)),
For conventional transmission electron microscopy, HEK293T cells were treated with 2.5 μM YOK1104 for 6 h, scraped from culture dish and pelleted by centrifugation. The pellets were resuspended in 2.5% glutaraldeyhyde in 0.1 M sodium cacodylate buffer (pH 7.4) (Electron Microscopy Sciences) for overnight at 4° C. The fixative was replaced by a cacodylate buffer for the last 6 h, after which the cells were embedded in Epon resin. Subsequently, the cells were cut into 55-nm sections and stained with uranyl acetate and lead citrate using the Reichert Ultracut S Ultramicrotome (Leica Microsystems) and FEI Vitrobot Mark IV (Thermo Scientific), respectively. The cell sections were observed using the 200 kV transmission electron microscope FEI Tecnai G2-F20 (Thermo Scientific).

BiP, PDI, TRIM13 = experiment: Immunoblotting of ER proteins under proteotoxic ER stress; assay type: cell-based, human; details: HeLa, MG132 2 μM 24 h, YOK1104 2.5 μM 4 h; FIG. 5F
Experimental: FIG. 5F illustrates the immunoblotting analysis results of HeLa cells treated with MG132 (2 μM, 24 h), YOK1104 (2.5 μM, 4 h), or both,
(§1) Cell pellets were washed with phosphate-buffered saline (PBS) and lysed in an SDS-based sample buffer (277.8 mM Tris-HCl, pH 6.8, 4.4% LDS, 44.4% (v/v) glycerol) with beta-mercaptoethanol. Alternatively, cell pellets or protein supernatants were lysed in a 5× Laemmli sample buffer (SDS-based sample buffer). Using SDS-PAGE, whole cell lysates were separated and transferred onto polyvinylidene difluoride membranes at 100 V for 2 h at 4° C. Subsequently, the membrane was blocked with 4% skim milk in PBS solution for 30 min at room temperature and incubated overnight with primary antibodies (see Reference Example 4), followed by incubation with host-specific HRP-conjugated secondary antibodies (Jackson laboratory) (1:10000 dilution). For signal detection, a mixture of ECL solution (Thermo Fisher Scientific) was applied onto the membrane and captured using X-ray films.

TRIM13 [1] = experiment: Autophagy flux assay of TRIM13-flag with bafilomycin A1; assay type: cell-based, human; details: HeLa TRIM13-flag, 2.5 μM 4 h, with or without bafilomycin A1 200 nM 6 h; FIG. 11M
Experimental: FIG. 11M illustrates the Western blotting results of HeLa cells transfected with TRIM13-flag or negative control empty vector (EV), treated with YOK1104 (2.5 μM, 4 h), and treated with or without bafilomycin A1 (200 nM, 6 h),
as §1

TRIM13-p62 complex = target: T1, TRIM13-p62 complex (Homo sapiens, UniProt Q13501); experiment: Co-IP with autophagy flux analysis using TRIM13 pulldown; assay type: cell-based; details: HEK293T p62-myc + TRIM13-flag
T1 construct: PCR amplification of a full-length human p62 cDNA fragment; expressed in transfected cells; host or cells: HEK293T
Experimental: FIG. 4I illustrates the Co-IP assay results in HEK293T cells treated with HCQ (10 μM, 24 h), tannic acid (30 μM, 24 h), or both, and co-transfected (24 h) with p62-myc and TRIM13-flag,
FIG. 5K illustrates the Co-IP assay results in HEK293T cells co-transfected with p62-myc and TRIM13-flag (24 h) or transfected with negative control empty vector (EV) and treated with HCQ (10 μM, 24 h), YOK1104 (2.5 μM, 4 h), or both, and
To test protein interaction, co-immunoprecipitation assays were performed. For exogenous co-IP, HEK293T cells were transfected with recombinant p62, BiP, TRIM13, reticulophagy regulator 1 (FAM134B), reticulon 3 (RTN3) or ATZ (Z variant E342K) using Lipofectamine 2000. The cell pellets were scraped and pelleted by centrifugation, resuspended and lysed in an immunoprecipitation buffer (IP buffer) [50 mM Tris-HCl pH 7.5, 150 mM NaCl, 0.5% Triton X-100, 1 mM EDTA, 1 mM phenylmethylsulfonyl fluoride (PMSF; Roche) and protease inhibitor cocktail (Sigma)] on a rotor at 4° C. for 30 min. Next, the supernatant and remaining pellets were passed through a 26-gauge 1 mL syringe 15 times and centrifuged at 13,000 g at 4° C. and collected for the supernatant, to which normal mouse IgG (Santa Cruz) and Protein A/G-Plus agarose beads (Santa Cruz) were added to preclear the lysate on a rotor at 4° C. overnight. The cell lysate was then incubated with M2 FLAG-affinity Gel agarose beads (Sigma) on a rotor at 4° C. for 3 h. The gel beads were washed four times with IP buffer, resuspended in 2× Laemmli Sample Buffer, separated by SDS-PAGE and analyzed by immunoblotting with specified antibodies.

TRIM13 [2] = experiment: In vivo oligomerization assay of TRIM13-flag (non-reducing SDS-PAGE); assay type: cell-based, human
Experimental: FIG. 4H illustrates the in vivo oligomerization assay results of TRIM13-flag in HEK293T cells treated with HCQ (10 μM, 24 h), tannic acid (30 μM, 24 h), or both,
FIG. 5L illustrates the In vivo oligomerization assay results of TRIM13-flag in HEK293T cells treated with MG132 (2 μM, 24 h) and with or without YOK1104 (2.5 μM, 4 h).
HEK293T cells were transfected with TRIM13-flag using Lipofectamine 2000 and treated with hydroxychloroquine (Sigma) for 24 h. To lyse the cells, the cells were subjected to a cycle of freezing/thawing and centrifuged at 13,000 g for 10 min after 30 min incubation on ice for supernatant collection. Protein concentration was measured using the Pierce BCA Protein Assay Kit (Thermo Fisher Scientific). Next, a non-reducing 4×LDS sample buffer was added to the sample lysate and followed by boiling at 100° C. for 10 min. The samples were loaded on a 3% stacking and 8% separating SDS-PAGE. Immunoblotting assays were performed using an anti-Flag antibody (Sigma) to visualize the oligomeric complexes of TRIM13.

HeLa cells [3] = experiment: Western blotting of ER stress and apoptosis in tannic acid-treated cells; assay type: cell-based, human; details: tannic acid 30 μM 24 h, YTK1105 5 μM 9 h, HCQ 10 μM 24 h, FIG. 5G
Experimental: FIG. 5G illustrates the Western blotting analysis results of HeLa cells treated with HCQ (10 μM, 24 h), YTK1105 (5 μM, 9 h), or both in the presence or absence of tannic acid (30 μM, 24 h),
as §1

HeLa cells [4] = experiment: ER expansion visualization by KDEL immunostaining; assay type: cell-based, human; details: tannic acid 30 μM 24 h with YTK1105 2.5 μM 5 h or rapamycin 2 μM 18 h, FIGS. 5H, 5I
Experimental: FIG. 5H illustrates the immunostaining results of KDEL signals in HeLa cells treated with or without tannic acid (30 μM, 24 h) and with YTK1105 (2.5 μM, 5 h) or rapamycin (2 μM, 18 h) (scale bar, 10 μm),
To observe cellular localization of proteins, cells were cultured on cover slips coated with poly-L-lysine (Sigma). The cells were fixed with 4% paraformaldehyde in PBS (pH 7.4) for 15 min at room temperature and washed three times with PBS for 5 min. The cells were permeabilized with 0.5% Triton X-100 in PBS solution for 15 min and washed three times with PBS for 5 min. The cells were blocked with 2% BSA in PBS solution for 1 h at room temperature. After blocking, the cells were incubated overnight at 4° C. with a primary antibody diluted in 2% BSA/PBS solution. […] Confocal images were taken by a laser scanning confocal microscope 510 Meta (Zeiss) and analyzed by Zeiss LSM Image Browser (ver. 4.2.0.121).
Using confocal microscopy of cells analyzed by immunocytochemistry, ER expansion was visualized by considered when KDEL- or calnexin-labelled ER occupied more than 80% of cell area. Furthermore, the ER area was calculated by ImageJ (NIH, Bethesda, v1.52) and the background threshold was manually defined and set for all images. The ER area was calculated and marked from the total cell area as a fraction after borders of each cell were set.

HeLa cells [5] = experiment: Immunocytochemistry co-localization analysis of ER markers (calnexin, KDEL) with p62 and LC3; assay type: cell-based, human; details: tannic acid 30 μM 24 h, HCQ 10 μM 24 h
Experimental: FIG. 2C is a fluorescence image illustrating the co-localization analysis results of p62 and calnexin in HeLa cells treated with HCQ (10 μM, 24 h), tannic acid (30 μM, 24 h) or both (scale bar, 10 μm),
FIG. 2E is a fluorescence image illustrating the co-localization analysis results of KDEL and LC3 in HeLa cells treated with HCQ (10 μM, 24 h), tannic acid (30 μM, 24 h) or both (scale bar, 10 μm),
FIG. 5C is a fluorescence image illustrating the co-localization analysis results of calnexin, p62 and LC3-GFP puncta structures in HeLa cells transfected with LC3-GFP and treated with YTK1105 (2.5 μM, 9 h) (scale bar, 10 μm),
FIG. 11E illustrates the co-localization analysis results of p62, KDEL and LC3-GFP in HeLa cells transiently transfected with LC3-GFP and treated with YTK1105 (2.5 μM, 5 h) (scale bar, 10 μm), […]
To observe cellular localization of proteins, cells were cultured on cover slips coated with poly-L-lysine (Sigma). […] Confocal images were taken by a laser scanning confocal microscope 510 Meta (Zeiss) and analyzed by Zeiss LSM Image Browser (ver. 4.2.0.121).
Quantification results are expressed as the mean+/−S.D. value of three independent test results. […] The P-values were determined using ANOVA with two-tailed student's t-test (degree of freedom=n−1) or Prism 6 software (GraphPad). The statistical significance was determined as values of p<0.05 (***p<0.001; **p<0.01; *p<0.05).

TRIM13 [6] = experiment: Immunoblotting of ER protein in tannic acid-treated cells; assay type: cell-based, human; details: HeLa, tannic acid 30 μM 24 h; FIG. 8E
Experimental: FIG. 8E illustrates the immunoblotting results of ER protein in HeLa cells treated with tannic acid (30 μM, 24 h),
as §1

Compound: CC(C)NC[C@@H](O)COc1ccc(OCc2ccccc2)c(OCc2ccccc2)c1 [YOK1104, (R)-1-(3,4-bis(benzyloxy)phenoxy)-3-(isopropylamino)propan-2-ol]
- delivery of ER compartments to autolysosomes; autophagosomes and autolysosomes by transmission electron microscopy (HEK293T cells): readily exhibited an abundance of autophagosomes and autolysosomes; also recorded: displayed the accumulation of ER fragments within their interior
- degradation of BiP, PDI and TRIM13 following up-modulation by proteotoxic ER stress (BiP, PDI, TRIM13): readily facilitated the degradation of BiP and PDI as well as TRIM13
- autophagic degradation of TRIM13 (TRIM13 [1]): drove TRIM13 to autophagic degradation
- autophagic degradation of the TRIM13-p62 complex (TRIM13-p62 complex; YOK1104 2.5 μM 4 h, HCQ 10 μM 24 h, FIG. 5K): enhanced autophagic degradation of the TRIM13-p62 complex
- degradation of oligomeric vs monomeric species of TRIM13 (TRIM13 [2]; HEK293T, MG132 2 μM 24 h, YOK1104 2.5 μM 4 h, FIG. 5L): selectively induced the degradation of oligomeric species but not that of monomeric species of TRIM13

Compound: Cl.OCCNCc1ccc(OCc2ccccc2)c(OCc2ccccc2)c1 [YTK1105, 2-((3,4-bis(benzyloxy)benzyl)amino)ethan-1-ol hydrochloride]
- rescue from ER stress and apoptosis (HeLa cells [3]): rescued tannic acid-treated cells from ER stress and apoptosis in an autophagy-dependent manner
- ER morphology (swelling), KDEL signals (HeLa cells [4]): readily restored

Compound: O=C(OC[C@H]1O[C@@H](OC(=O)c2cc(O)c(O)c(OC(=O)c3cc(O)c(O)c(O)c3)c2)[C@H](OC(=O)c2cc(O)c(O)c(OC(=O)c3cc(O)c(O)c(O)c3)c2)[C@@H](OC(=O)c2cc(O)c(O)c(OC(=O)c3cc(O)c(O)c(O)c3)c2)[C@@H]1OC(=O)c1cc(O)c(O)c(OC(=O)c2cc(O)c(O)c(O)c2)c1)c1cc(O)c(O)c(OC(=O)c2cc(O)c(O)c(O)c2)c1 [tannic acid]
- localization of p62 puncta to calnexin signals (targeting of p62 to the ER) (HeLa cells [5]; FIGS. 2C, 2D): p62 punctate signals were delocalized from calnexin signals
- autophagic targeting of KDEL+ proteins (KDEL-LC3 co-localization) (HeLa cells [5]; FIGS. 2E, 2F): abolished
- ER morphology (swelling), KDEL signals (HeLa cells [4]): the ER spontaneously swelled into abnormal morphology
- turnover of TRIM13 and its complex with p62 (TRIM13-p62 complex; tannic acid 30 μM 24 h, HCQ 10 μM 24 h, FIG. 4I): became metabolically stabilized
- binding of p62 to TRIM13 (TRIM13-p62 complex; tannic acid 30 μM 24 h, FIG. 4I): p62 normally bound to TRIM13
- oligomeric status of TRIM13 (TRIM13 [2]; HEK293T TRIM13-flag, tannic acid 30 μM 24 h, HCQ 10 μM 24 h, FIGS. 4H, 9L): TRIM13 lost its oligomeric status, leading to the uncontrolled formation of aggregates
- TRIM13 protein level (autophagic degradation) (TRIM13 [6]): stabilized
